Measurements published in patent US11952368B2, “FAPI dimer compound, FAPI dimer-based positron emission tomography (PET) imaging agent for tumor diagnosis, and preparation method and use thereof” (XIAMEN UNIVERSITY, priority 2021, dated 2024).

Biological target: T1, FAP on CAFs (Homo sapiens, UniProt Q12884)
T1 construct: FAP-expressing CAFs were inoculated in a 24-well plate; endogenous in cells; host or cells: cancer-associated fibroblasts (CAFs)
T1 sequence (Q12884 1-760): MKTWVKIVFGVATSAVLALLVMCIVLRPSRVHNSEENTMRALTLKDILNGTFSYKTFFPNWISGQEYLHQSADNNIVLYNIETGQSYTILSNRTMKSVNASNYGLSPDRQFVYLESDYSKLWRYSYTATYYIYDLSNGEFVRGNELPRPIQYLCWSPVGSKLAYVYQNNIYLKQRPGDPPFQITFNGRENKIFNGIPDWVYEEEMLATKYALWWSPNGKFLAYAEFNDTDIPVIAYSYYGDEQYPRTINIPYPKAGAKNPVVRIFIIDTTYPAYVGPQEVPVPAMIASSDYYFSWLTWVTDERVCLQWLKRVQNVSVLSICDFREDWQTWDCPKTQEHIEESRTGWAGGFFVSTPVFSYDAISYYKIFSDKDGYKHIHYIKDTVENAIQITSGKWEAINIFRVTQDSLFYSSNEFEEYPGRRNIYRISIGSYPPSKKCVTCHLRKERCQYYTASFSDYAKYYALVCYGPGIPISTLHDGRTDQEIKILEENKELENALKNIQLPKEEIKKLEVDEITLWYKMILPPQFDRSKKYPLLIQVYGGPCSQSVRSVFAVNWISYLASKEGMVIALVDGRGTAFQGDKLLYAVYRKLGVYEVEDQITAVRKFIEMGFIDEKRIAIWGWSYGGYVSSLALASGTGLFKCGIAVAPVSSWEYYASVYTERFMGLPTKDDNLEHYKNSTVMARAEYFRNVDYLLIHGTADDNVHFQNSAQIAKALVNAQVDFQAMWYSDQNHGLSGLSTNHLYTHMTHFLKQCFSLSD
Test: FAP binding assay (radioligand competition) on CAFs
Description: FAP-expressing CAFs were inoculated in a 24-well plate and cultivated with a 10% (volume fraction) FBS-containing 1640 medium for 48 h before the experiment until a cell density was about 80% to 90%; the medium was changed to an FBS-free 1640 medium; and the ^68Ga-2PEG(3)-FAPI-dimer, ^68Ga-FAPI-46, or ^68Ga-2PEG(3)-FAPI-dimer+11.3 nmol FAPI-46 (for the blocking experiment) was added to the 24-well plate and incubated, with predetermined intervals of 10 min, 30 min, 60 min, 90 min, and 120 min. The FAP binding assay was conducted after a radiolabeled compound and a corresponding unlabeled FAPI derivative (1.27×10^−4-10^−13 mol/L of 2PEG(3)-FAPI-dimer was added to ^68Ga-2PEG(3)-FAPI-dimer; and 2.83×10^−4-1×10^−13 mol/L of FAPI-46 was added to ^68Ga-FAPI-46) were co-incubated for 60 min. A half-inhibitory concentration (IC50s) was calculated by using GraphPad Prism to fit data through nonlinear regression. In each step of the experiment, cells were washed twice with 1 mL of PBS. Finally, CAFs were lysed with 0.5 mL of a 1 mol/L NaOH aqueous solution to conduct radioactive counting with a gamma counter. 3 parallel replicates were set for each experiment.

## CN(CCCN1CCN(C(=O)COCCOCCOCCNC(=O)CCC(=O)N[C@@H](CCCCNC(=O)CN2CCN(CC(=O)O)CCN(CC(=O)O)CCN(CC(=O)O)CC2)C(=O)NCCOCCOCCOCC(=O)N2CCN(CCCN(C)c3ccc4nccc(C(=O)NCC(=O)N5CC(F)(F)C[C@H]5C#N)c4c3)CC2)CC1)c1ccc2nccc(C(=O)NCC(=O)N3CC(F)(F)C[C@H]3C#N)c2c1 [2PEG(3)-FAPI-dimer]
  IC50 value compared with FAPI-46: similar
